Laboratory results: publication PMC201021 (Malaria Journal, 2003)
Entries after “also recorded” stand apart in the source; their conditions may differ.

How the values were obtained:
[1] = tested on: haematin dimerization to β-haematin; assay: β-Haematin Inhibitory Activity; format: biochemical; settings: 10 fold molar excess of drug
[2] = tested on: haematin dimerization to β-haematin; settings: cited from earlier work

Row | Structure (SMILES) | inhibition of the BHIA haematin dimerization reaction (in words) [1] | inhibition of the BHIA haematin dimerization reaction (in words) ([1]; listed as PM) | inhibition of spontaneous haematin dimerization to β-haematin in vitro [2]
1 | C=C[C@H]1C[N@@]2CC[C@H]1C[C@@H]2[C@@H](O)c1ccnc2ccccc12 [C, cinchonine] | activity; also recorded: inhibited |  | 
2 | C=C[C@H]1CN2CC[C@H]1C[C@H]2[C@H](O)c1ccnc2ccccc12 [CD, cinchonidine] | activity; also recorded: inhibited |  | 
3 | CCN(CC)CCCC(C)Nc1ccnc2cc(Cl)ccc12 (centres unmarked) [CQ, chloroquine] | inhibited |  | 
4 | CC[C@H]1CN2CC[C@H]1C[C@H]2[C@H](O)c1ccnc2ccc(OC)cc12 [HQ, hydroquinine] | activity; also recorded: inhibited |  | 
5 | CC[C@H]1CN2CC[C@H]1C[C@@H]2[C@@H](O)c1ccnc2ccc(OC)cc12 [HQD, hydroquinidine] | activity; also recorded: inhibited |  | 
6 | CC(CN1c2ccccc2Sc2ccccc21)N(C)C (centres unmarked) [PMZ, promethazine] | Significant inhibition was not seen | no significant interaction | 
7 | C=C[C@H]1CN2CC[C@H]1C[C@@H]2C(O)c1ccnc2ccc(OC)cc12 (some centres unmarked) [Q, 6'-methoxy cinchonan-9-ol] | activity; also recorded: inhibited |  | inhibits
8 | C=C[C@H]1C[N@@]2CC[C@H]1C[C@@H]2[C@@H](O)c1ccnc2ccc(OC)cc12 [QD, quinidine] | activity; also recorded: inhibited |  | 
9 | COc1ccc(CCN(C)CCCC(C#N)(c2ccc(OC)c(OC)c2)C(C)C)cc1OC (centres unmarked) [VE, Verapamil] | Significant inhibition was not seen; also recorded: no significant interaction |  | 
